Read-outs that look alike come from different tables or passages of the source.
Experiment: Toxicokinetics in rat toxicity study (IV infusion)
Format: in vivo
Details: for half-life / AUC(0-inf) / Cmax / Tmax: rat, plasma
Procedure: Rats: Pharmacokinetic properties of Compound I were evaluated in a rat toxicity study across a range of IV doses: 5, 10, and 20 mg/kg/dose administered as ready-to-use formulation (see Example 1). Compound I was administered by intravenous infusion via a catheter placed into the lateral tail vein once per week over a period of 1 hour on Days 1, 8, and 15. Blood samples for toxicokinetic (TK) analysis were collected from treated TK animals predose, within 3 minutes of end of infusion, and at 1, 3, 5, 11, 23, and 47 hours post end of infusion on Day 1 and within 3 minutes of end of infusion and 47 hours post end of infusion on Day 15. The TK parameters were determined for Compound I from the mean plasma concentrations per gender and group, using a non-compartmental method.

[1] = 1 hour IV infusion, 5 mg/kg/dose, Female, Day 1 (first dose)
[2] = 1 hour IV infusion, 5 mg/kg/dose, Male, Day 1 (first dose)
[3] = 1 hour IV infusion, 10 mg/kg/dose, Female, Day 1 (first dose)
[4] = 1 hour IV infusion, 10 mg/kg/dose, Male, Day 1 (first dose)
[5] = 1 hour IV infusion, 20 mg/kg/dose, Female, Day 1 (first dose)
[6] = 1 hour IV infusion, 20 mg/kg/dose, Male, Day 1 (first dose)

For `Cc1cnc(CNC(=O)c2c(=O)c3ccc(N4CCCN(C)CC4)nc3n3c2sc2ccccc23)cn1` [Compound I, 2-(4-Methyl-[1,4]diazepan-1-yl)-5-oxo-5H-7-thia-1,11b-diaza-benzo[c]fluorene-6-carboxylic acid (5-methyl-pyrazin-2-ylmethyl)-amide], the “AUC0-inf dose proportionality (in words)” value (IV 5-20 mg/kg/dose) was “approximately dose proportional”, the half-life (both sexes, IV infusion 5, 10, 20 mg/kg/dose, Day 1, read-out: terminal half-life) was 7 to 16.8 h and the AUC(0-inf) [1] was 20800 ng·h/mL. The Cmax [1] was 2520 ng/mL, the Tmax [1] was 1 h and the half-life (1 hour IV infusion, 5 mg/kg/dose, Female, Day 1 (first dose), read-out: T1/2 (converted)) was 9.3 h. For the same compound, the AUC(0-inf) [2] was 24500 ng·h/mL, the Cmax [2] was 3360 ng/mL and the Tmax [2] was 1 h. It also gave a half-life (1 hour IV infusion, 5 mg/kg/dose, Male, Day 1 (first dose), read-out: T1/2 (converted)) of 7 h, an AUC(0-inf) [3] of 44800 ng·h/mL and a Cmax [3] of 3810 ng/mL. For the same compound, the Tmax [3] was 2 h, the half-life (1 hour IV infusion, 10 mg/kg/dose, Female, Day 1 (first dose), read-out: T1/2 (converted)) was 7.6 h and the AUC(0-inf) [4] was 42100 ng·h/mL. For the same compound, the Cmax [4] was 4500 ng/mL, the Tmax [4] was 1 h and the half-life (1 hour IV infusion, 10 mg/kg/dose, Male, Day 1 (first dose), read-out: T1/2 (converted)) was 8.1 h. For the same compound, the AUC(0-inf) [5] was 80600 ng·h/mL, the Cmax [5] was 4960 ng/mL and the Tmax [5] was 6 h. It also gave a half-life (1 hour IV infusion, 20 mg/kg/dose, Female, Day 1 (first dose), read-out: T1/2 (converted)) of 16.8 h, an AUC(0-inf) [6] of 79200 ng·h/mL and a Cmax [6] of 6810 ng/mL. For the same compound, the Tmax [6] was 1 h and the half-life (1 hour IV infusion, 20 mg/kg/dose, Male, Day 1 (first dose), read-out: T1/2 (converted)) was 11.4 h.
